The values that follow come from patent US8207176B2 (Glaxo Group Limited, priority 2005, dated 2012).

Structures can show the parent of a compound that is named as a salt.

The first experiment concerns influx of neutrophils to the lung in LPS-challenged rats. Briefly: Rat LPS neutrophilia model. Particulars: intratracheal, LPS aerosol 100 ug/ml 15 min, lavage 4 hours later, in at least one of the range of conditions tested, significant p<0.05, nonsignificant p>0.05. The format is in vivo. The procedure, abridged: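 Compound was given intratracheally (200 ul, suspension or dry powder) 15 min–24 hours before a 15 min aerosol of LPS (100 ug/ml). Bronchoalveolar lavage was taken 4 hours after challenge for differential cell counts. Values are % inhibition of neutrophils versus no-compound controls at a given concentration and pretreat time.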
As for `Cc1ccc(NC(=O)c2ccsc2)cc1-c1nc(NC2CC(C)(C)NC(C)(C)C2)nc2c1ccc(=O)n2-c1c(F)cccc1F` [31(e), N-(3-{8-(2,6-difluorophenyl)-7-oxo-2-[(2,2,6,6-tetramethyl-4-piperidinyl)amino]-7,8-dihydropyrido[2,3-d]pyrimidin-4-yl}-4-methylphenyl)-3-thiophenecarboxamide], the “inhibition of neutrophilia (neutrophil levels in lung lavage relative to no compound controls)” value is “statistically significant inhibition”.
Turning to `Cc1ccc(C(=O)NC(C)C)cc1-c1nc(N2CCC(N3CCC(C)CC3)CC2)nc2c1ccc(=O)n2-c1c(F)cccc1F` [163(c), 3-[8-(2,6-difluorophenyl)-2-(4-methyl-1,4′-bipiperidin-1′-yl)-7-oxo-7,8-dihydropyrido[2,3-d]pyrimidin-4-yl]-4-methyl-N-(1-methylethyl)benzamide], the “inhibition of neutrophilia (neutrophil levels in lung lavage relative to no compound controls)” value was “statistically nonsignificant inhibition”.

Another experiment deals with T1, Recombinant human p38α (MKK6-activated) (Homo sapiens, UniProt Q16539).
T1 construct: His; made in house
T1 sequence (Q16539 whole entry): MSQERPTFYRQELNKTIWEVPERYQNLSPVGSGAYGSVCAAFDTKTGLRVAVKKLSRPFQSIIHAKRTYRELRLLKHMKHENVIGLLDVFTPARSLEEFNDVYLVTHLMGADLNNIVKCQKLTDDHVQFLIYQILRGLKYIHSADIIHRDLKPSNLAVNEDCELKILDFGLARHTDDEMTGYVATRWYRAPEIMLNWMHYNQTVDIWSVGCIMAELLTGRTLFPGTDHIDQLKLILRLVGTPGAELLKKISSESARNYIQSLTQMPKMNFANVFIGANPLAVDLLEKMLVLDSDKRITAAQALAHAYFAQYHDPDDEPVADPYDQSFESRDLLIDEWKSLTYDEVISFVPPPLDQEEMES
In words: Time-resolved fluorescence resonance energy transfer (TR-FRET) kinase assay (standard or low volume). The class given is biochemical. Also noted: key: Compounds are considered active in this assay if they demonstrate a pIC50 of greater than 4.6 up to about a pIC50 of greater than 10.0. Particulars: MKK6-activated p38α 100 pM, GST-ATF2 400 nM, 120 minutes at room temperature; either assay format. How it is done:
It is noted that there are two assay formats shown above for the Fluorescence anisotropy kinase binding assay. The only difference between these two assays is the volume used and the plate type. […] The results described herein may have been performed in either assay format and are not differentiated as to which. […] TR-FRET Assay Time-Resolved Fluorescence Resonance Energy Transfer Kinase Standard Assay Recombinant human p38α was expressed as a His-tagged protein. To activate this protein, 3 μM unactivated p38α was incubated in 200 mM Hepes pH 7.4, 625 mM NaCl, 1 mM DTT with 27 nM active MKK6 (Upstate), 1 mM ATP and 10 mM MgCl2 The activity of the MKK6-activated p38α was assessed using a time-resolved fluorescence resonance energy transfer (TR-FRET) assay. Biotinylated-GST-ATF2 (residues 19-96, 400 nM final), ATP ([…]) and MgCl2 (5 mM final) in assay buffer (40 mM HEPES pH 7.4, 1 mM DTT) were added to wells containing 1 ul of various concentrations of compound or DMSO vehicle (3% final) in NUNC 384 well black plate. The reaction was initiated by the addition of MKK6-activated p38 (100 pM final) to give a total volume of 30 ul. The reaction was incubated for 120 minutes at room temperature, then terminated by the addition of 15 μl of 100 mM EDTA pH 7.4. Detection reagent (15 μl) in buffer (100 mM HEPES pH 7.4, 150 mM NaCl, 0.1% w/v BSA, 1 mM DTT) containing antiphosphothreonine-ATF2-71 polyclonal antibody (Cell Signalling Technology, Beverly Mass., USA) labelled with W-1024 europium chelate (Wallac OY, Turku, Finland), and APC-labelled streptavidin (Prozyme, San Leandro, Calif., USA) was added and the reaction was further incubated for 60 minutes at room temperature. The degree of phosphorylation of GST-ATF2 was measured using a Packard Discovery plate reader (Perkin-Elmer Life Sciences, Pangbourne, UK) as a ratio of specific 665 nm energy transfer signal to reference europium 620 nm signal. Time-Resolved Fluorescence Resonance Energy Transfer Kinase Low Volume Assay Recombinant human p38α was expressed as a His-tagged protein. To activate this protein, 3 μM unactivated p38α was incubated in 200 mM Hepes pH7.4, 625 mM NaCl, 1 mM DTT with 27 nM active MKK6 (Upstate), 1 mM ATP and 10 mM MgCl2 The activity of the MKK6-activated p38α was assessed using a time-resolved fluorescence resonance energy transfer (TR-FRET) assay. Biotinylated-GST-ATF2 (residues 19-96, 400 nM final), ATP (125 μM final) and MgCl2 ([…]) in assay buffer (40 mM HEPES pH 7.4, 1 mM DTT) were added to wells containing 0.1 μl of various concentrations of compound or DMSO vehicle (1.7% final) in Greiner low volume 384 well black plate. The reaction was initiated by the addition of MKK6-activated p38α (100 pM final) to give a total volume of 6 μl. The reaction was incubated for 120 minutes at room temperature, then terminated by the addition of 3 μl of detection reagent in buffer (100 mM HEPES pH 7.4, 150 mM NaCl, 0.1% w/v BSA, 1 mM DTT, 100 mM EDTA) containing antiphosphothreonine-ATF2-71 polyclonal antibody (Cell Signalling Technology, Beverly Mass., USA) labelled with W-1024 europium chelate (Wallac OY, Turku, Finland), and APC-labelled streptavidin (Prozyme, San Leandro, Calif., USA). The reaction was further incubated for 60 minutes at room temperature. The degree of phosphorylation of GST-ATF2 was measured using a BMG Rubystar plate reader (BMG, UK) as a ratio of specific 665 nm energy transfer signal to reference europium 620 nm signal. It is noted that there are two assay formats shown above for the Time-resolved fluorescence resonance energy transfer kinase assay. The only difference between these two assays is the volume used and the plate type. […] The results described herein may have been performed in either assay format and are not differentiated as to which. […] For purposes herein the HTRF assay and the Fluorescence anisotropy kinase binding assay: […]
(Time-resolved FRET reads energy transfer from a long-lived donor to a nearby acceptor.)
For the compound `Cc1ccc(NC(=O)c2ccsc2)cc1-c1nc(NC2CC(C)(C)NC(C)(C)C2)nc2c1ccc(=O)n2-c1c(F)cccc1F` [31(e), N-(3-{8-(2,6-difluorophenyl)-7-oxo-2-[(2,2,6,6-tetramethyl-4-piperidinyl)amino]-7,8-dihydropyrido[2,3-d]pyrimidin-4-yl}-4-methylphenyl)-3-thiophenecarboxamide], the “pIC50, reported as active” value is listed as “active”.
`Cc1ccc(C(=O)NC(C)C)cc1-c1nc(N2CCC(N3CCC(C)CC3)CC2)nc2c1ccc(=O)n2-c1c(F)cccc1F` [163(c), 3-[8-(2,6-difluorophenyl)-2-(4-methyl-1,4′-bipiperidin-1′-yl)-7-oxo-7,8-dihydropyrido[2,3-d]pyrimidin-4-yl]-4-methyl-N-(1-methylethyl)benzamide]: the “pIC50, reported as active” value is recorded as “active”.
Consider `CCCNC(=O)c1ccc(-c2nc(NCCCN(CC)CC)nc3c2ccc(=O)n3-c2c(F)cccc2F)cc1` [188(b), 4-[2-{[3-(diethylamino)propyl]amino}-8-(2,6-difluorophenyl)-7-oxo-7,8-dihydropyrido[2,3-d]pyrimidin-4-yl]-N-propylbenzamide], for which the “pIC50, reported as active” value is given as “active”.
Still for that read-out and setting: the entry for `Cc1ccc(NC(=O)c2ccc(Cl)nc2)cc1-c1nc(N2CCC(N)CC2)nc2c1ccc(=O)n2-c1c(F)cccc1F` [Example 15, N-{3-[2-(4-amino-1-piperidinyl)-8-(2,6-difluorophenyl)-7-oxo-7,8-dihydropyrido[2,3-d]pyrimidin-4-yl]-4-methylphenyl}-6-chloro-3-pyridinecarboxamide] is “active”.
On the same count and under the same terms, then `Cc1ccc(C(=O)O)cc1-c1nc(N2CCC(N3CCC(C)CC3)CC2)nc2c1ccc(=O)n2-c1c(F)cccc1F` [163(b), 3-[8-(2,6-difluorophenyl)-2-(4-methyl-1,4′-bipiperidin-1′-yl)-7-oxo-7,8-dihydropyrido[2,3-d]pyrimidin-4-yl]-4-methylbenzoic acid], with “active”; and `Cc1ccc(C(=O)NC2CC2)cc1-c1nc(NC(CO)CO)nc2c1ccc(=O)n2-c1c(F)cccc1F` [Example 36, N-cyclopropyl-3-(8-(2,6-difluorophenyl)-2-{[2-hydroxy-1-(hydroxymethyl)ethyl]-amino}-7-oxo-7,8-dihydropyrido[2,3-d]pyrimidin-4-yl)-4-methylbenzamide], with “active”.
For `Cc1ccc(NC(=O)c2cccs2)cc1-c1nc(NC2CC(C)(C)NC(C)(C)C2)nc2c1ccc(=O)n2-c1c(F)cccc1F` [Example 9, N-(3-{8-(2,6-difluorophenyl)-7-oxo-2-[(2,2,6,6-tetramethyl-4-piperidinyl)amino]-7,8-dihydropyrido[2,3-d]pyrimidin-4-yl}-4-methylphenyl)-2-thiophenecarboxamide], the “pIC50, reported as active” value was “active”.
As for `CNC1CCN(c2nc(-c3cc(C(=O)Nc4ccc(F)cc4)ccc3C)c3ccc(=O)n(-c4c(F)cccc4F)c3n2)CC1` [114(b), 3-{8-(2,6-difluorophenyl)-2-[4-(methylamino)-1-piperidinyl]-7-oxo-7,8-dihydropyrido[2,3-d]pyrimidin-4-yl}-N-(4-fluorophenyl)-4-methylbenzamide], the “pIC50, reported as active” value is “active”.
For `CCN(CC)CCCNc1nc(-c2cc(C(=O)O)cc(F)c2C)c2ccc(=O)n(-c3c(F)cccc3F)c2n1` [179(b), 3-[2-{[3-(diethylamino)propyl]amino}-8-(2,6-difluorophenyl)-7-oxo-7,8-dihydropyrido[2,3-d]pyrimidin-4-yl]-5-fluoro-4-methylbenzoic acid trifluoroacetate], the “pIC50, reported as active” value was “active”.
Still for that read-out and setting: then `Cc1ccc(C(=O)NC(C)C)cc1-c1nc(NCc2ncc[nH]2)nc2c1ccc(=O)n2-c1c(F)cccc1F` [Example 74, 3-{8-(2,6-difluorophenyl)-2-[(1H-imidazol-2-ylmethyl)amino]-7-oxo-7,8-dihydropyrido[2,3-d]pyrimidin-4-yl}-4-methyl-N-(1-methylethyl)benzamide], with “active”; and `CCN(CC)CCCNc1nc(-c2cc(C(=O)O)ccc2C)c2ccc(=O)n(-c3c(F)cccc3F)c2n1` [118(a), 3-[2-{[3-(diethylamino)propyl]amino}-8-(2,6-difluorophenyl)-7-oxo-7,8-dihydropyrido[2,3-d]-pyrimidin-4-yl]-4-methylbenzoic acid], with “active”.
The same measure, in the same setting: the entry for `CCN(CC)CCCNc1nc(-c2cccc(C(=O)Nc3nccs3)c2C)c2ccc(=O)n(-c3c(F)cccc3F)c2n1` [150(d), 3-[2-{[3-(diethylamino)propyl]amino}-8-(2,6-difluorophenyl)-7-oxo-7,8-dihydropyrido[2,3-d]pyrimidin-4-yl]-2-methyl-N-1,3-thiazol-2-ylbenzamide] is “active”; for `CCN(CC)CCCNc1nc(-c2cc(C(=O)NC(C)C)cc(F)c2C)c2ccc(=O)n(-c3c(F)cccc3F)c2n1` [179(c), 3-[2-{[3-(diethylamino)propyl]amino}-8-(2,6-difluorophenyl)-7-oxo-7,8-dihydropyrido[2,3-d]pyrimidin-4-yl]-5-fluoro-4-methyl-N-(1-methylethyl)benzamide] it is “active”.
As for `CCN(CC)CCCNc1nc(-c2cccc(C(=O)NC)c2)c2ccc(=O)n(-c3c(F)cccc3F)c2n1` [193(b), 3-[2-{[3-(diethylamino)propyl]amino}-8-(2,6-difluorophenyl)-7-oxo-7,8-dihydropyrido[2,3-d]pyrimidin-4-yl]-N-methylbenzamide], the “pIC50, reported as active” value is listed as “active”.
On the same count and under the same terms, then `Cc1ccc(NC(=O)c2cccs2)cc1-c1nc(NCc2ncc[nH]2)nc2c1ccc(=O)n2-c1c(F)cccc1F` [Example 10, N-(3-{8-(2,6-difluorophenyl)-2-[(1H-imidazol-2-ylmethyl)amino]-7-oxo-7,8-dihydropyrido[2,3-d]pyrimidin-4-yl}-4-methylphenyl)-2-thiophenecarboxamide], with “active”; and `CCN(CC)CCCNc1nc(-c2cc(C(=O)NC(C)C)ccc2C)c2ccc(=O)n(-c3c(F)cccc3F)c2n1` [118(b), 3-[2-{[3-(diethylamino)propyl]amino}-8-(2,6-difluorophenyl)-7-oxo-7,8-dihydropyrido[2,3-d]pyrimidin-4-yl]-4-methyl-N-(1-methylethyl)benzamide], with “active”.
